Legend:
GH = conditions: Varga et al, Proc. Natl. Acad. Sci. USA 1999; cited from earlier work
ghrelin receptor = target: T1, ghrelin receptor (Rattus norvegicus, UniProt O08725); assay: GH release from short-term BLA cell cultures after ghrelin receptor stimulation; assay type: cell-based; conditions: versus vehicle
T1 construct: short-term cultures were generated of BLA cells and measured GH protein in the media following treatment with either MK-0677 or vehicle; endogenous in cells; host or cells: short-term cultures of basolateral amygdala (BLA) cells
Experimental: (§1) Animals were killed 24 h after the last stress or handling session and the basolateral complex of the amygdala (BLA) was dissected. Growth hormone (GH) levels in the BLA were measured using enzyme-linked immunosorbent assay (ELISA). b) The herpes simplex virus (HSV)-based viral vectors expressing either green fluorescent protein (GFP; CON) or recombinant rat GH (rGH) was infused in the BLA and expression was assessed after behavioral testing was complete. Representative GFP expression from two rats is shown. c) Auditory Pavlovian fear conditioning was performed 3 days after HSV virus infusions. d) Long-term fear memory was assessed by placing the animals in a novel context and measuring conditional freezing following tone presentation 48 h after the conditioning session. e) Short-term BLA cell cultures were used to measure GH release following treatment with a ghrelin receptor agonist (MK) or vehicle (VEH). f) Adeno-associated virus (AAV) constructs were generated to examine the contribution of GH-mediated signaling in the BLA to ghrelin-induced potentiation of fear. g) Following infusion of the AAVs into the BLA and recovery, rats received 10 days of systemic injection of either a ghrelin receptor agonist (MK) or vehicle (VEH). […]

endogenous GH = assay: Auditory fear conditioning after intra-BLA AAV (GHA or GFP) and 10 days of systemic MK-0677 or saline; assay type: in vivo, rat; conditions: 10 days MK-0677 or saline, tested 48 h after conditioning
Experimental: as §1

T1 sequence (O08725 whole entry): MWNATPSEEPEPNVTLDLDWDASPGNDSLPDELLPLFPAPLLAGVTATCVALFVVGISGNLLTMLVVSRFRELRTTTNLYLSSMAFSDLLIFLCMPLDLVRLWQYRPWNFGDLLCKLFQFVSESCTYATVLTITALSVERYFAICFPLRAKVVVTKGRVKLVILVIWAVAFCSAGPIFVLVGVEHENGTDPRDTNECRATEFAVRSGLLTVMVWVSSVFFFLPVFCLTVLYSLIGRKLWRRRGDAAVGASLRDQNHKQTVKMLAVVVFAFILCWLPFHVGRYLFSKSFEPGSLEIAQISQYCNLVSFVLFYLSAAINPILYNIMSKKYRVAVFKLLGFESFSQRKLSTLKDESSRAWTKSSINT

**Q.** Which antagonistic activity (GH) does the source give for “[PhAc-Tyr1,D-Arg2,Phe(4-Cl)6,Abu15,Nle27, D-Arg28,Har29]hGH-RH(1-29)NH2 [MZ-6-55]” here?
**A.** Its antagonistic activity is “high and or protracted antagonistic activity”.

**Q.** For “[PhAc-Tyr1,DArg2, Phe(4-Cl)6,Arg9,Abu15,Nle27,D-Arg28,Har29]hGH-RH(1-29)NH2 [JV-1-36]”, which antagonistic activity (GH) is on record?
**A.** The antagonistic activity was “high and or protracted antagonistic activity”.

**Q.** Which antagonistic activity (GH) does the source give for “[PhAc-Tyr1,DArg2, Phe(4-Cl)6,Arg9,Abu15,Nle27,D-Arg29]hGH-RH(1-29)NH2 [JV-1-10]” here?
**A.** The antagonistic activity was “high and or protracted antagonistic activity”.

**Q.** For `CC(C)(N)C(=O)N[C@H](COCc1ccccc1)C(=O)N1CCC2(CC1)CN(S(C)(=O)=O)c1ccccc12` [MK-0677], which “release of GH into the media” value (ghrelin receptor) is on record?
**A.** Its value is “significantly elevated release of GH”.

**Q.** And the “long-term auditory fear memory” value (endogenous GH)?
**A.** Its value is “fear-enhancing effects”.

**Q.** Which antagonistic activity (GH) does the source give for “[PhAc-Tyr1,D-Arg2,Phe(4-Cl)6, Har9,Tyr(Me)10,Abu15,Nle27,D-Arg28,Har29]hGH-RH(1-29)NH2 [JV-1-38]” here?
**A.** Its antagonistic activity is “high and or protracted antagonistic activity”.
